Assay results: patent US12201626B2, “Bifunctional compositions for the treatment of cancer” (ARMACEUTICA, INC., priority 2018, dated 2025)
Where two headings read alike, the source gives them in different places.

What was measured:
[1] = Differential Nuclear Staining (DNS) cytotoxicity assay; assay type: cell-based; details: human; for selectivity ratio at 72 h: read-out: selective cytotoxicity index (SCI)
Source text: (§1) In this study, 19 human cell lines were utilized: seven breast human cancer; MDA-MB-468, MCF-7, T47D, HCC1419, HCC70, MDA-MB-231 (triple negative) and its lung metastatic (LM) derivative MDA-MB-231 LM2; four human leukemia/lymphoma cells, HL-60, Ramos, Jurkat and CEM, three human ovarian cancer, Ovcar 8, Ovcar 5 and Ovcar 3, one lung cancer, one melanoma and one pancreatic cell line, A549, A375, Panc-1 respectively. Furthermore, for selectivity/comparative purposes, the cell lines from the non-cancerous origin, MCF-10A, HS-27 were also included. The culture media used for MDA-MB-231, MDA-MB-231 LM2, MDA-MB-468, MCF-7, A549, A375, Panc-1, and HS-27 was DMEM (Hyclone, Logan UT), whereas for T47D, HCC-1419, HCC-70, HL-60, Ramos, Jurkat, CEM, Ovcar 8 and Ovcar 5 was RPMI-1640 (Hyclone, Logan UT). Consistently, both DMEM and RPMI culture media was supplemented with 10% heat-inactivated fetal bovine serum (FBS: Hyclone), 100 U/ml penicillin and 100 μg/ml streptomycin (Thermo Fisher Scientific Inc., Rockford, IL). The MCF-10A cells were grown in DMEM/F12 supplemented with 10% FBS, 10 μg/ml recombinant human insulin (Sigma), 0.5 μg/ml hydrocortisone (Sigma), 20 ng/ml epidermal growth factor, 2.5 mM L-glutamine, 100 U/ml penicillin, and 100 μg/ml streptomycin. Also, a slight modification of the culture media to the HL-60 and Ovcar 3 cell lines was that 20% of FBS was added to the media (ATCC, Manassas, VA, USA). In addition, Ovcar 3 cells required 10 μg/ml recombinant human insulin (Sigma). The adherent cells, growing in the logarithmic growth phase at a 60-75% confluence, were detached by utilizing a HyQtase enzyme (Thermo Fisher Scientific Inc.), counted and seeded in 96-well plates at 10,000 cells density in 100 μL of culture medium per well. Cells growing in suspension were processed similarly as described above except for the addition of HyQtase. Typically, the incubation conditions of all the cells were at 37° C. in a 5% CO2 humidified atmosphere.
(§2) To analyze the potential cytotoxic activity of PND, the Differential Nuclear Staining (DNS) assay, which was validated for high-throughput screening (HTS) using live-cell bio-imaging was utilized. For this assay, cells were seeded at 10,000 cells/well density in a 96-well plate in 100 μl of culture media, incubated overnight, and treated with a gradient of PND concentrations for 72 h. Two hours before imaging, two fluorescent nucleic acid intercalators were added to each well, Hoechst 33342 and propidium iodide (PI; Invitrogen); at a final concentration of 1 μg/ml each. Due to its high permeability, Hoechst stains all of the cells (total dead and alive), whereas PI only stains dead or dying cells. Montages of 2 by 2 images were captured directly from each individual well of the culture plates by using a multi-well plate reader IN Cell 2000 analyzer, an HTS and high-content analysis (HCA) system (GE Healthcare Life Sciences, Pittsburgh, PA). The following controls were included in every single plate: PBS as solvent/vehicle control, hydrogen peroxide as a positive control for cytotoxicity, and untreated cells to determine the background of toxicity due to cell manipulation and intrinsic factors usually associated with the culture protocol. Each experimental data point, as well as controls, were assessed in triplicates. Cytotoxic concentration 50% (CC50) values were calculated based on a linear interpolation equation. CC50 is defined as the PND concentration required to disrupt the plasma membrane integrity of 50% of the cell population, as compared with solvent-treated cells.
(§3) The selective cytotoxicity index (SCI) denotes the capability of a given experimental compound to kill cancer cells more efficiently while inflicting minimal toxicity to non-cancerous origin cells. Thus, the SCI for PND was calculated as follow: SCI=CC50 of non-cancerous cells/CC50 of cancer cells.

[2] = tested on: MDA-MB-231 cells; test: as above; assay type: cell-based
Source text: as §1, §2, §3

[3] = tested on: HL-60 cells; test: as above; assay type: cell-based
Source text: as §1, §2, §3

[4] = tested on: MDA-MB-231 cells; test: Cell cycle profile and DNA fragmentation, DAPI flow cytometry; assay type: cell-based, human; details: 72 h
Experimental: Asynchronous cultures in the exponential growth phase of MDA-MB-231 and HL-60 cells in 24-well plates were treated with several doses of PND. After 72 h of incubation, cells were centrifuged and treated as in the previous section, fixed, permeabilized and stained with a DNA intercalating fluorophore, 4,6-Diamidino-2-phenylindole (DAPI); those three steps were accomplished by adding to the cells 200 μl of a single nuclear isolation medium (NIM)-DAPI solution (Beckman Coulter). The cell suspension was then incubated for an additional 3 min at room temperature in the dark. The controls included in the series of experiments were similar to those described for the above experiments. Approximately, 20,000 events/cells were collected per sample by using a flow cytometer equipped with a solid state 405 nm laser (Gallios; Beckman Coulter). The acquisition and distribution of cell subpopulations within each cell cycle facets were accomplished by utilizing Kaluza flow cytometry software (Beckman Coulter). Additionally, doublets were effectively eliminated by including a single cells gate in the acquisition cell cycle protocol.

**Q.** Which selectivity ratio at 72 h ([1]; HL-60) does the source give for `COC1=CC=C2Nc3cc(Cl)ccc3C(N=C3C=C(CN4CCCC4)C(=O)C(CN4CCCC4)=C3)=C2N1` [PND, 4-[(7-chloro-2-methoxy-1,5-dihydrobenzo[b][1,5]naphthyridin-10-yl)imino]-2,6-bis(pyrrolidin-1-ylmethyl)cyclohexa-2,5-dien-1-one] here?
**A.** 3.5

**Q.** And the selectivity ratio at 72 h ([1]; MCF-7 cells against non-cancerous MCF-10A cells, vs MCF-10A)?
**A.** 4.13

**Q.** What about the CC50 at 72 h ([1]; MCF-10A non-cancerous cells) of the same molecule?
**A.** 6.6 µM

**Q.** And the selectivity ratio at 72 h ([1]; MDA-MB-231 LM2 cells against non-cancerous MCF-10A cells, vs MCF-10A)?
**A.** 2.54

**Q.** And the selectivity ratio at 72 h ([1]; MDA-MB-231 cells against non-cancerous MCF-10A cells, CC50 of non-cancerous MCF-10A / CC50 of MDA-MB-231)?
**A.** > 3

**Q.** And the selectivity ratio at 72 h ([1]; MDA-MB-468 cells against non-cancerous MCF-10A cells, vs MCF-10A)?
**A.** 3.88

**Q.** And the selectivity ratio at 72 h ([1]; T47D cells (against non-cancerous cells, line not specified))?
**A.** < 1

**Q.** What about the selectivity ratio at 72 h ([1]; HCC-70) of the same molecule?
**A.** < 1

**Q.** What about the selectivity ratio at 72 h ([1]; Jurkat) of the same molecule?
**A.** 3.3

**Q.** What about the selectivity ratio at 72 h ([1]; Ramos) of the same molecule?
**A.** 3

**Q.** What about the selectivity ratio at 72 h ([1]; lung cancer line) of the same molecule?
**A.** < 2

**Q.** And the selectivity ratio at 72 h ([1]; melanoma cell line)?
**A.** 3.2

**Q.** And the selectivity ratio at 72 h ([1]; pancreatic cancer line)?
**A.** < 2

**Q.** And the selectivity ratio at 72 h ([1]; two of the three ovarian cancer lines)?
**A.** 3.9

**Q.** And the “selective cytotoxicity index (SCI)” value ([2]; CC50 of non-cancerous MCF-10A / CC50 of MDA-MB-231)?
**A.** 4.13

**Q.** What about the CC50 ([2]; Homo sapiens, MDA-MB-231, 72 h, DNS assay) of the same molecule?
**A.** 1600 nM

**Q.** And the “selective cytotoxicity index (SCI)” value [3]?
**A.** > 3

**Q.** And the CC50 ([3]; Homo sapiens, 72 h, DNS assay)?
**A.** 1900 nM

**Q.** And the G0/G1 cell subpopulation [4]?
**A.** significant decrease

**Q.** What about the “DNA fragmentation (sub-G0/G1 subpopulation)” value ([4]; concentration-dependent, P<0.0005) of the same molecule?
**A.** significant increase

**Q.** What about the “S and G2/M subpopulations” value ([4]; vs PBS and untreated controls) of the same molecule?
**A.** decreased
